The values below come from PubChem BioAssay AID1902 (Broad Institute, 2009).

For this assay, the target named is S. pyogenes SKKanGAS, kanamycin survival, BacTiterGlo, 6 h. Briefly: SKKanGAS survival reduction under kanamycin, dose response, streptokinase promoter inhibitor project, SKKanGAS strain, luminescence, dose confirmation (AID 1902).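 Further: lower survival reflects blocked streptokinase promoter driving kanamycin resistance gene.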

The source made the active and inactive calls.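 How the source made its calls: active means EC50 no more than a set limit of log units above the highest dose; inactive means the rest.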 Some results are limits rather than exact numbers.

In general, EC50 refers to the concentration giving half of the maximal effect. In the case of `Cc1ccc(Cc2cnc(N3C(=N)SC(C)C3=O)s2)cc1` (centres undefined), the EC50 is 0.298 µM.
For `Oc1ccccc1N=Cc1c(O)ccc2oc3c(c12)CCCC3` the value was 5.52 µM; for `Cc1ccc2ccc(C(Nc3ccccn3)c3ccccc3)c(O)c2n1` (centres undefined), 0.705 µM; for `COCCn1c(SCc2nc3sc(C(=O)OC)c(C)c3c(=O)[nH]2)nc2ccccc21`, 3.54 µM.
Under `CCOc1ccc(-n2c(O)c(/C=N/NC(=O)C3COc4ccccc4O3)c3ccccc3c2=O)cc1` (centres undefined) stands 2.34 µM; under `Cc1cc(C)c(C2C3=C(Nc4c2c(C)nn4-c2ccccn2)c2ccccc2C3=O)c(C)c1` (centres undefined), 1.45 µM; under `Nc1nc(Nc2ccc(Cl)cc2)nc(NCc2ccco2)c1[N+](=O)[O-]`, 6.56 µM.
Under `Cn1c(O)c(N=NC(=S)Nc2ccccc2F)c2cc(S(=O)(=O)N3CCOCC3)ccc21` stands 5.09 µM; under `CCCCNc1c(-c2ccc(SC3CCCCC3)cc2)nc2ccccn12`, 3.87 µM.
For `CC(=O)[C@@]1(O)C(C)CC2C3C=C(C)C4=Cc5c(cnn5-c5ccccc5)C[C@]4(C)C3C(O)C[C@@]21C` (some centres undefined), the EC50 is 3.56 µM.
Regarding `Cc1ncc(CO)c(/C=N/NC(=O)c2cc(Br)ccc2O)c1O`, the EC50 was 1.52 µM.
For the compound `O=C(c1ccccc1)c1cc2ccc(O)cc2oc1=O`, the EC50 was 6.03 µM.
Turning to `Cc1cccc(C(=O)NNC(=O)c2c(O)c3ccccc3n(C)c2=O)c1`, the EC50 is 6.96 µM.
Under `CCOC(=O)c1c(NC(=O)c2cccs2)sc(CC)c1-c1cccs1` stands 13.1 µM; under `COc1ccc(NS(=O)(=O)c2cccc(NC(=O)CCC(=O)c3ccc(Cl)cc3)c2)cc1`, 7.85 µM; under `Nc1c(C(=O)Nc2nc3ccccc3s2)sc2nc(-c3cccs3)ccc12`, 6.67 µM.
Regarding `CCc1ccc2[nH]c(=O)c(C3C(C#N)=C(N)Oc4c3ccc3cccnc43)cc2c1` (centres undefined), the EC50 is 1.63 µM.
Under `O=C(Nc1nc(-c2ccccn2)cs1)c1cccc(-n2cnnn2)c1` stands 2.3 µM.
As for `O=[N+]([O-])/C=C/c1ccc2c(ccn2Cc2ccccc2)c1`, the EC50 was 3.04 µM.
Consider `Cc1cc(C)n(-c2nc(Nc3ccccc3C)nc(-n3nc(C)cc3C)n2)n1`, for which the EC50 is 5.32 µM.
For `O=C(CNc1cccc2ccccc12)N/N=C/c1ccc[nH]1` the value was > 15 µM (inactive); for `COc1ccc2cc(C(=O)/C=C/c3cc(OC)c(O)c(OC)c3)ccc2c1`, 6.68 µM; for `O=C(O)CC/C(=C\c1cc2c(cc1Br)OCO2)c1nc2ccccc2s1`, 10.5 µM.
`O=C(CSc1nnc(CNC(=O)c2c(F)cccc2F)o1)NCc1ccccc1`: the EC50 is > 15 µM (inactive).
In the case of `Cn1c(N)c(C(=O)COC(=O)CCc2c[nH]c3ccccc23)c(=O)n(C)c1=O`, the EC50 is 9.68 µM.
Under `COc1ccc2nc(Nc3nc4cc5c(cc4s3)OCO5)sc2c1` stands 1.02 µM; under `CC(C)C[C@H](NC(=O)c1[nH]cnc1C(=O)N[C@@H](Cc1ccccc1)C(=O)OC(C)(C)C)C(=O)OC(C)(C)C`, 2.1 µM.
As for `Cc1cccc(NC(=S)/N=C(\N)Nc2nc(C)c3ccc(C)cc3n2)c1`, the EC50 is > 15 µM (inactive).
Turning to `Oc1c(Cl)cc(Cl)cc1C=Nc1cc(C(F)(F)F)ccc1N1CCc2ccccc2C1`, the EC50 was 3 µM.
Under `CNC(CC(C)C)C(=O)NC1C(=O)NC(CC(N)=O)C(=O)NC2C(=O)NC3C(=O)NC(C(=O)NC(C(=O)O)c4cc(O)cc(O)c4-c4cc3ccc4O)C(O)c3ccc(c(Cl)c3)Oc3cc2cc(c3OC2OC(CO)C(O)C(O)C2OC2CC(C)(N)C(O)C(C)O2)Oc2ccc(cc2Cl)C1O` (centres undefined) stands 0.169 µM; under `Cc1cccc(NC(c2ccc(C)s2)c2ccc3ccc(C)nc3c2O)n1` (centres undefined), 3.9 µM.
For `Cc1ccccc1Nc1nc(N)nc(CN(C)Cc2ccccc2Cl)n1` the value was 1.76 µM.
Under `CCS(=O)(=O)N1Cc2ccccc2CC1C(=O)Nc1nnc(SCc2ccc(C#N)cc2)s1` (centres undefined) stands 8.26 µM.
In the case of `COc1cccc(-c2nn(C)c3sc(C(=O)Nc4ccc5c(c4)OCCO5)cc23)c1`, the EC50 is 3.65 µM.
As for `S=C1NC(C23CC4CC(CC(C4)C2)C3)=CC(c2ccc3c(c2)OCO3)N1` (centres undefined), the EC50 was 6.76 µM.
As for `C/C(=N/NS(=O)(=O)c1ccc(Cl)cc1)c1cccc(NC(=O)c2ccc(Cl)cc2Cl)c1`, the EC50 is 4.79 µM.
Under `Cc1ccc(N=Nc2ccc(O)c(P(=O)(c3ccccc3)c3ccccc3)c2)cc1` stands 3.36 µM.
`COCC1CCCCN1C(=O)c1ccc2oc(CCCc3ccccc3)nc2c1` (centres undefined): the EC50 is > 15 µM (inactive).
For `COc1ccc(Nc2nc(NN)nc(Nc3ccc(OC)cc3)n2)cc1` the value was 6.02 µM; for `CCCCNc1c(-c2ccc(OC)c(SC3CCCCC3)c2)nc2cc(C)ccn12`, 3.89 µM; for `COc1cc(OC)cc(C(=O)Nc2nnc(NC(=S)Nc3ccccc3)s2)c1`, 5.13 µM.
On to `Cc1cccc(CSc2ncnc3c2cnn3Cc2ccccc2)c1`, for which the EC50 was 4.58 µM.
For `COc1cc(OC)c2cc(C(=O)N/N=C/c3ccccc3O)[nH]c2c1`, the EC50 was 1.1 µM.
Regarding `CC(=O)N1c2ccc(S(=O)(=O)N3CCC(C(=O)Nc4cc(C)ccn4)CC3)cc2CC1C` (centres undefined), the EC50 was > 15 µM (inactive).
Under `CCN1CCN(Cc2ccc(NC(=O)c3cc(NC(=O)c4cc(-c5ccc(OC)cc5)n[nH]4)cc(OC)c3)cc2C(F)(F)F)CC1` stands 4.26 µM.
For `COc1ccccc1-c1cn[nH]c1-c1ccc(OCc2ccc(F)cc2)cc1O`, the EC50 was 10.8 µM.
Take `CCOC(=O)N1CCN(C(=O)c2ccc3c(c2)N(C)C(=O)/C(=C\c2ccc(OCC)c(OC)c2)S3)CC1`: the EC50 was 0.593 µM.
Turning to `CCCc1cc(=O)n2[nH]cc(-c3ccc(Cl)cc3)c2n1`, the concentration giving a half-maximal response (EC50) was 1.78 µM.
As for `COc1ccc(NC(=S)NNc2ccc([N+](=O)[O-])cc2S(=O)(=O)Nc2ccc(C)cc2C)cc1`, the EC50 was 8.34 µM.
`Cc1cc(C)c(OCC(=O)Nc2ccccc2N2CCCCC2)c(C)c1`: the 50% effective concentration (EC50) is 4.38 µM.
Take `CC(C)(C)c1ccc(O)c(N=Cc2c(O)ccc3ccccc23)c1`: the EC50 was 5.12 µM.
Under `CCN1CCN(Cc2ccc(NC(=O)c3ccc(C)c(/C=C/c4cnc(Nc5cc(N6CCNCC6)nc(C)n5)cn4)c3)cc2C(F)(F)F)CC1` stands 8.41 µM.
Under `S=C(Nc1ccc(Cl)cc1)c1nc2ccccc2[nH]1` stands 0.183 µM; under `c1ccc(/N=C2\N=C(Nc3ccccn3)c3ccccc32)nc1`, 2.44 µM; under `CN(C)/C=C(\C=N\OCc1ccc(Cl)cc1Cl)C(=O)Nc1ccc(Cl)c(Cl)c1`, 0.803 µM.
As for `Cc1cc(N2C(=O)C(O)=C(C(=O)c3cc4ccccc4o3)C2c2cccc(Cl)c2)no1` (centres undefined), the EC50 was 1.33 µM.
Take `COc1ccc(CC(=O)N/N=C/c2cc([N+](=O)[O-])cc(Br)c2O)cc1`: the EC50 is 4.91 µM.
Under `CCc1nc(SCC(=O)N2c3ccccc3CC2C)c2c(C)c(C)sc2n1` (centres undefined) stands 8.61 µM.
Regarding `S=c1nc(SCc2ccccc2)[nH]c2ccccc12`, the EC50 is 3.19 µM.
Under `CCOc1ccc2nc(NC(=O)CN3CCC(n4nnc5cc(C(F)(F)F)ccc54)CC3)sc2c1` stands 2.43 µM; under `CCOc1ccc(Cl)cc1S(=O)(=O)n1cnc2cc(C)c(C)cc21`, 4.77 µM; under `OC(c1ccc(OCc2ccccc2)cc1)c1nnc(-c2ccccc2)o1` (centres undefined), 13.4 µM.
For `Cc1cc(C)c2c(c1)NC(c1cc3c(cc1Br)OCO3)C1CC=CC21` (centres undefined) the value was 8.13 µM; for `COc1ccc(CCNC(=O)c2cccc(NS(=O)(=O)c3ccccc3F)c2)cc1OC`, > 15 µM (inactive).
Regarding `COC(=O)C1=C(C)NC2=C(C(=O)c3ccccc32)C1c1ccc(-c2ccc(C(=O)O)cc2)o1` (centres undefined), the EC50 was 2.76 µM.
For the compound `COc1cccc(-c2cc(C(F)(F)F)nc(N3CCCCC3)n2)c1`, the EC50 was 4.86 µM.
As for `Oc1ccccc1/C=N/NC(=S)NC1CC2C=CC1C2` (centres undefined), the EC50 is 5.69 µM.
Regarding `C=CCn1c(Oc2ccc(C(=O)OC)cc2)nc2c1c(=O)n(C)c(=O)n2C`, the EC50 was 7.96 µM.
For `CCOc1ccc(NC(=O)CN(C)C(=O)C2CC(=O)N(c3ccc4c(c3)OCCO4)C2)cc1OCC` (centres undefined) the value was > 15 µM (inactive).
In the case of `O=C(Nc1ccccc1C(=O)O)c1cccc(NC(=O)c2ccc(Br)o2)c1`, the EC50 is 4.96 µM.
For `CN1CCN(C2=Cc3ccc(Cl)cc3Sc3ccc(F)cc32)CC1` the value was 4.61 µM; for `c1ccc2c(c1)ncn2CCCOc1ccc2c(c1)CCC2`, 7.49 µM; for `CCCCCCn1c(=O)c(C(=O)Nc2c(C)n(C)n(-c3ccccc3)c2=O)c(O)c2ccccc21`, 2.59 µM.
With `N#CC1=C(N)SC(N)=C(C#N)C1c1c(Cl)cccc1Cl`, the half-maximal effective concentration (EC50) was 8.78 µM.
For `Cc1ccc(NS(=O)(=O)c2cc([N+](=O)[O-])ccc2NNC(=S)Nc2cccc(Cl)c2)c(C)c1` the value was 0.865 µM.
For `CCCCCCCCCc1nc2sc3c(c2c(=O)n1NC(=O)c1ccccc1[N+](=O)[O-])CC(C)(C)OC3` the value was 2.75 µM; for `Cn1ccc(=Nc2ccc(NC(=O)c3ccc(N=c4ccn(C)c5ccc([N+](=O)[O-])cc45)cc3)cc2)cc1`, 0.357 µM.
For the compound `Cc1c(N/N=C(\C#N)C(=O)c2ccccc2)c(=O)n(-c2ccccc2)n1C`, the EC50 is 1.44 µM.
With `O=C1CCCc2oc3c(cc(NS(=O)(=O)c4ccc5c6c(cccc46)C(=O)N5)c4ccccc43)c21`, the EC50 was 4.02 µM.
Take `COc1cccc(C(=O)NC(=S)N2CCN(c3ccc(C(F)(F)F)cc3[N+](=O)[O-])CC2)c1`: the EC50 is > 15 µM (inactive).
For `O=C1c2ccccc2C2=Nc3ccccc3SC(c3ccc(Cl)cc3)C12` (centres undefined) the value was 3.9 µM; for `COc1cccc(CC(=O)OCC(=O)Nc2nnc(-c3ccccc3)o2)c1`, 4.58 µM; for `CCCCCCCCCCOC(=O)Cn1c(COc2cccc(C)c2)[n+](C)c2ccccc21`, 2.83 µM.
On to `Cc1nc(-n2[nH]c3c(c2=O)CCCC3)[nH]c(=O)c1Cc1ccccc1`, for which the EC50 was 1.39 µM.
Consider `Oc1ccccc1N=Nc1nc(-c2ccccc2)c(-c2ccccc2)[nH]1`, for which the EC50 was 0.303 µM.
Turning to `CCc1ccc2nc(N3C(=O)C(O)=C(C(=O)c4ccco4)C3c3cccs3)sc2c1` (centres undefined), the EC50 is 1.88 µM.
`CCCCCCSc1cc(-c2nc3cnccn3c2NCc2ccccc2)ccc1OC`: the EC50 was 3.61 µM.
For the compound `CC1CCN(c2nc3ccccc3nc2C(C#N)C(=O)NC2CCCCC2)CC1` (centres undefined), the EC50 is 1.9 µM.
For `O=C(CSc1nnc(CNC(=O)c2ccc(F)cc2)o1)NCc1ccccc1Cl` the value was > 15 µM (inactive).
